Laboratory results reported in PubChem BioAssay AID1996.
In brackets after ≈: the same amount, converted by molar mass.

Conditions: buffer; pH 7.4; 200.0 µM

| Structure (SMILES) | solubility kinetic |
| --- | --- |
| Cc1ccc(C(=O)NC2CC(C)(C)NC(C)(C)C2)cc1Cl | 43.6 µg/mL (≈ 141 µM) |
| S=C(NCc1cccs1)Nc1cc(Cl)cc(Cl)c1 | 0.7 µg/mL (≈ 2.21 µM) |
| OC(CNCCc1c[nH]c2ccccc12)C(F)(F)F (stereo unspecified) | > 40.8 µg/mL |
| Cc1ccc(S(=O)(=O)N2CCC3(CC2)OCCO3)s1 | > 45.5 µg/mL |
| O=C(Nc1ccc2c(c1)OCO2)c1cnccn1 | 19.5 µg/mL (≈ 80.2 µM) |
| O=C(Nc1cccnc1)c1ccc(C(=O)Nc2cccnc2)cc1 | 0.8 µg/mL (≈ 2.51 µM) |
| Cc1ccc(C)n1-c1cc([N+](=O)[O-])ccc1-n1ccnc1 | 35.9 µg/mL (≈ 127 µM) |
| N#Cc1cccc(C(=O)Nc2cccc(S(=O)(=O)N3CCCC3)c2)c1 | 5.8 µg/mL (≈ 16.3 µM) |
| Cc1ccc(-c2nc(-c3ccncc3)no2)c(C)c1 | 0.5 µg/mL (≈ 1.99 µM) |
| CN(C)S(=O)(=O)NCCNc1ccc(C(F)(F)F)cc1[N+](=O)[O-] | 18.2 µg/mL (≈ 51.1 µM) |
| Cc1ccc(SCc2nc3ncccn3c2Br)cc1 | > 50.1 µg/mL |
| COc1cc(/C=C(\C#N)C(=O)N2CCCCC2)ccc1O | > 42.9 µg/mL |
| CN1CCC(O)(c2cccs2)C(C(=O)c2cccs2)C1 (stereo unspecified) | 42.1 µg/mL (≈ 137 µM) |
| OC(COc1ccccc1)CN1CCCCCC1 (stereo unspecified) | > 37.4 µg/mL |
| Cc1nc(/C(=N/O)C(N)=O)cs1 | > 27.8 µg/mL |
| CN1C(=S)SC2CS(=O)(=O)CC21C (stereo unspecified) | > 35.6 µg/mL |
| CCn1c(O)c(C=NC2CCCC(C)C2C)sc1=S (stereo unspecified) | 4.3 µg/mL (≈ 14.4 µM) |
| O=S(=O)(NCc1ccc2c(c1)OCO2)c1ccc(F)cc1 | > 46.4 µg/mL |
| O=[N+]([O-])c1cnccc1NC1CCCCC1 | 29.1 µg/mL (≈ 132 µM) |
| O=C(O)c1ccc(S(=O)(=O)NC2CC2)cc1 | > 36.2 µg/mL |
| O=C(COc1ccc2ccc(=O)oc2c1)Nc1nccs1 | 11.3 µg/mL (≈ 37.4 µM) |
| N#Cc1ccc(C(=O)NC(=S)N2CCOCC2)cc1 | > 41.3 µg/mL |
| Cc1ccc(C)c(NC(=O)CN(C)C(=O)C2CCCC2)c1 | > 43.3 µg/mL |
| Cc1cc(N2CCOCC2)nc2ccc(Cl)cc12 | 1.7 µg/mL (≈ 6.47 µM) |
| O=C(COC(=O)C1CC1)Nc1ccc2[nH]c(=O)[nH]c2c1 | > 41.3 µg/mL |
| CCCc1cc(C(=O)NC(C)C2CCCO2)cs1 (stereo unspecified) | > 40.1 µg/mL |
| COc1cc(CNC(C)(C)C)ccc1OCC(=O)NC(C)(C)C | > 48.4 µg/mL |
| O=C(NCc1cccc(C(F)(F)F)c1)c1ccc2c(c1)OCCO2 | 6.1 µg/mL (≈ 18.1 µM) |

| Structure (SMILES) | solubility kinetic |
| --- | --- |
| O=C(c1ccccc1F)N1CCN(c2ccccn2)CC1 | > 42.8 µg/mL |
| CN1CCN(C(=O)Nc2ccccc2)CC1.O=C(O)C(=O)O | > 46.4 µg/mL |
| FC(c1nc2ccccc2[nH]1)C(F)(F)F (stereo unspecified) | > 32.7 µg/mL |
| Fc1ccccc1Oc1nc(-c2ccncc2)nc2ccccc12 | < 0.2 µg/mL |
| CCc1cc2c(SCC(=O)NC3CC3)ncnc2s1 | > 44 µg/mL |
| Cc1ccc(NC(=O)NC2CCCCCCC2)cc1C | < 0.3 µg/mL |
| O=C1CCC(=O)N1CCSC(=S)N1CCSCC1 | > 45.7 µg/mL |
| CC(O)Cn1c(N2CCCC2)nc2c1c(=O)n(C)c(=O)n2C (stereo unspecified) | > 46.1 µg/mL |
| CC(C)N(C(=S)Nc1cccc(C(F)(F)F)c1)C(C)c1ccccn1 (stereo unspecified) | 6.7 µg/mL (≈ 18.2 µM) |
| CC1CCCN(S(=O)(=O)c2cnc[nH]2)C1 (stereo unspecified) | > 34.4 µg/mL |
| COc1cc([N+](=O)[O-])ccc1NC(=O)CN1CCc2cc(OC)c(OC)cc2C1 | 34.1 µg/mL (≈ 84.9 µM) |
| COc1ccc(OC)c(N2C(=O)CC(=O)NC2=O)c1 | > 39.6 µg/mL |
| O=C(Nc1ccccc1[N+](=O)[O-])C1(c2ccccc2)CCOCC1 | 42.3 µg/mL (≈ 130 µM) |
| Nc1nc(Cl)cc(-c2ccccc2)n1 | 29.3 µg/mL (≈ 142 µM) |
| CC(C)n1c(SCC(=O)NC2CCCCC2)nnc1-c1ccco1 | > 52.3 µg/mL |
| COc1ccccc1C(=O)N1CCC(N2CCN(c3ccccc3)CC2)CC1 | 41.5 µg/mL (≈ 109 µM) |
| Cc1c(NC(=O)CN2CCCC(C)C2)ccc2nsnc12 (stereo unspecified) | 42.6 µg/mL (≈ 140 µM) |
| Cc1ccc(N2CC(C(=O)N3CCOCC3)CC2=O)cc1Cl (stereo unspecified) | > 48.4 µg/mL |
| COc1ccccc1/C=C/C(=O)N1CCN(S(=O)(=O)c2cccs2)CC1 | 23.7 µg/mL (≈ 60.4 µM) |
| N#C/C(=C\c1cccnc1)c1ccccn1 | > 31.1 µg/mL |
| O=C(c1ccc2c(c1)OCCCO2)N1CCCCC1 | 28.6 µg/mL (≈ 109 µM) |
| CN(C)C(=O)Oc1ccc2c(c1)O/C(=C\c1cccc(Cl)c1)C2=O | < 0.7 µg/mL |
| CC(C)Oc1ccc(/C=C(\C#N)C(=O)NC2CC2)cc1 | 13.4 µg/mL (≈ 49.6 µM) |
| O=C1C2C3C=CC(C2C(=O)N1CCO)C1C(=O)N(CCO)C(=O)C31 (stereo unspecified) | > 50.1 µg/mL |
| CCNCCC(CCC(C)C)c1ccc2c(c1)OCO2 (stereo unspecified) | 33.7 µg/mL (≈ 121 µM) |
| COc1ccc(-c2cn3ccccc3n2)cc1 | > 33.6 µg/mL |
| COc1cc(/C=C/C(=O)Nc2ccc(OC)c(S(=O)(=O)N3CCOCC3)c2)ccc1OCC#N | 7.1 µg/mL (≈ 14.6 µM) |

Further lines, results first:

| solubility kinetic | Structure (SMILES) |
| --- | --- |
| 4.6 µg/mL (≈ 15.9 µM) | NC(=O)c1cccc(NC(=O)Nc2ccc(Cl)cc2)c1 |
| 36.2 µg/mL (≈ 120 µM) | CC(C)(C)NC(=O)C(=O)NC(=O)c1c(F)cccc1Cl |
| 6.2 µg/mL (≈ 16.6 µM) | O=C(NCCc1ccccc1)C1CCN(Cc2cccc3ccccc23)CC1 |
| > 46.1 µg/mL | O=C(O)CC1(CC(=O)NCc2ccc(F)cc2)CCCCC1 |
| > 51.1 µg/mL | O=C(NCCCN1CCOCC1)C1Cc2c(ccc3ccccc23)O1 (stereo unspecified) |
| 9.3 µg/mL (≈ 36.6 µM) | CC(C)(C)CC(=O)NC(=S)NCc1ccco1 |
| > 38.6 µg/mL | Cn1ccnc1SCC(=O)c1ccc(C#N)cc1 |
| 46.6 µg/mL (≈ 110 µM) | COc1ccc(Cl)cc1NC(=O)COC(=O)Cc1cc(OC)c(OC)c(OC)c1 |
| 34.3 µg/mL (≈ 109 µM) | Brc1ccc2ncnc(NCc3cccnc3)c2c1 |
| 37.4 µg/mL (≈ 143 µM) | COC(=O)Cc1csc(NCc2ccccc2)n1 |
| 7.6 µg/mL (≈ 17.6 µM) | O=C(CN1C(=O)NC(c2ccccc2)(c2ccccc2)C1=O)NCCc1ccc(F)cc1 |
| 26.6 µg/mL (≈ 103 µM) | CCCCn1c(=O)c(C(C)=O)c(O)c2ccccc21 |
| > 48.4 µg/mL | CCOc1ccccc1NC(=O)CN1C(=O)CSC(C)C1=O (stereo unspecified) |
| < 0.3 µg/mL | S=c1nc(-c2ccccc2)[nH]c2ccc(Br)cc12 |
| 1.7 µg/mL (≈ 4.96 µM) | O=C(Nc1ccc2c(c1)OCO2)c1cc(-c2ccccc2Cl)on1 |
| > 50.9 µg/mL | CCOc1ccc(CN(C)C(=O)c2cc3ccccc3o2)cc1OC |
| < 0.6 µg/mL | C/C(=N\O)c1oc2ccc3c(C)cc(=O)oc3c2c1C |
| > 68.9 µg/mL | CC(=O)c1cccc(N2C(=O)CC(N3CCN(S(=O)(=O)c4ccccc4F)CC3)C2=O)c1 (stereo unspecified) |
| > 48.5 µg/mL | CCO/C=C1/C(=O)N(c2ccccc2OC)C(=O)c2ccccc21 |
| > 42.6 µg/mL | COc1ccc(OC)c(N2C(=O)c3cccnc3C2=O)c1 |
| 21.2 µg/mL (≈ 67.4 µM) | O=C(CN1C(=O)c2ccccc2C1=O)Nc1cccc(Cl)c1 |
| 14.9 µg/mL (≈ 43.4 µM) | Cc1ccccc1OCC(=O)OCC(=O)Nc1ccc2c(c1)OCO2 |

| solubility kinetic | Structure (SMILES) |
| --- | --- |
| 26.4 µg/mL (≈ 85 µM) | CC(C)CC(=O)N1CCN(Cc2ccc3ccccc3c2)CC1 |
| 26.3 µg/mL (≈ 100 µM) | O=C(NCc1ccccc1)c1ccc2ccccc2n1 |
| 8.2 µg/mL (≈ 28.2 µM) | CC(NC(=S)NC(=O)c1cccs1)c1ccccc1 (stereo unspecified) |
| > 43.1 µg/mL | CN1CC(=O)N(CC(=O)Nc2ccc3c(c2)CCC3)C1=O |
| > 42.6 µg/mL | O=C(Nc1ccccc1Cl)c1ccc2nccnc2c1 |
| > 40.5 µg/mL | CC(O)CNCc1ccccc1C(F)(F)F.Cl (stereo unspecified) |
| 6.6 µg/mL (≈ 24.5 µM) | CNC(=O)c1ccc(NC(=O)Nc2ccccc2)cc1 |
| 1.5 µg/mL (≈ 4.51 µM) | CS(=O)(=O)c1ccc2nc(NC(=O)c3ccccc3)sc2c1 |
| < 0.2 µg/mL | Cc1ccc2cc(C)c(SCC(=O)Nc3cc(C)on3)nc2c1 |
| 14.9 µg/mL (≈ 46.7 µM) | CC(C)(C)OC(=O)CN1c2cccc3cccc(c23)S1(=O)=O |
| 44.4 µg/mL (≈ 141 µM) | O=C(COC(=O)c1ccccn1)Nc1ccc2c(c1)OCCO2 |
| 37.4 µg/mL (≈ 138 µM) | COC1c2ccccc2C(=O)N1Cc1ccc(F)cc1 (stereo unspecified) |
| 8.4 µg/mL (≈ 28.4 µM) | CC(=O)Oc1ccc2c(=O)oc(-c3ccccc3C)nc2c1 |
| 0.2 µg/mL (≈ 0.79 µM) | O=C(Nc1nc2ccccc2[nH]1)c1ccccc1O |
| 41.9 µg/mL (≈ 126 µM) | CC(=O)C1=C(C)OC(N)=C(C#N)C1c1cc([N+](=O)[O-])ccc1Cl (stereo unspecified) |
| 3.3 µg/mL (≈ 9.69 µM) | CC(C)(C)NC(=O)CSc1ncccc1-c1nc2ccccc2[nH]1 |
| > 49.5 µg/mL | CC(=O)Cc1nsc(NC(=O)c2ccc(Cl)cc2Cl)n1 |
| > 51.1 µg/mL | O=C(NCc1ccccc1C(F)(F)F)C1CCC(=O)N(C2CC2)C1 (stereo unspecified) |
| 19.1 µg/mL (≈ 88.3 µM) | COc1cnc(-c2ccccc2)nc1OC |
| 0.4 µg/mL (≈ 1.51 µM) | C=CCN1C(=O)N(CC=C)c2cccc3cccc1c23 |
| 0.8 µg/mL (≈ 2.39 µM) | Cc1cc(C)cc(NC(=O)NCc2c(-c3ccccc3)noc2C)c1 |
| > 26.6 µg/mL | O=c1[nH]c2ccccc2c(O)c1O |

| solubility kinetic | Structure (SMILES) |
| --- | --- |
| 4.2 µg/mL (≈ 12.4 µM) | CCNC(=S)N1CCN(S(=O)(=O)/C=C/c2ccccc2)CC1 |
| > 47 µg/mL | CCOc1ccccc1NC(=O)Nc1cccc(NC(C)=O)c1 |
| > 44.9 µg/mL | Cc1cc(NC(=O)C2CC(=O)N(c3ccccc3C)C2)no1 (stereo unspecified) |
| > 62.9 µg/mL | Nc1ccccc1-c1nnc(SCC(=O)Nc2ccccc2OC(F)F)[nH]c1=O |
| 7.3 µg/mL (≈ 22.2 µM) | CC(=O)c1ccc(NC(=O)COC(=O)/C=C/c2cccs2)cc1 |
| 5.4 µg/mL (≈ 18.3 µM) | Cc1cc(NC(=O)/C=C/c2ccccc2)c(C(C)C)cc1O |
| 41.9 µg/mL (≈ 148 µM) | NC(=O)COC(=O)C1c2ccccc2Oc2ccccc21 |
| 31.8 µg/mL (≈ 85.1 µM) | Cc1ccc(C(=O)Nc2ccccc2)cc1S(=O)(=O)N1CCN(C)CC1 |
| > 60.4 µg/mL | COc1cc(CC(=O)OCC(=O)Nc2ccc(N(C)C)cc2)cc(OC)c1OC |
| > 58.6 µg/mL | CC(C)C(NC(=O)C1CC(=O)N(Cc2ccccc2)C1)c1nc2ccccc2[nH]1 (stereo unspecified) |
| 44.6 µg/mL (≈ 146 µM) | COc1ccccc1C(=O)COC(=O)c1ccc(Cl)nc1 |
| > 42.9 µg/mL | Cc1ccc(C(=O)NCCC(=O)NCc2ccco2)cc1 |
| 36.1 µg/mL (≈ 113 µM) | CCOC(=O)N1CCN(C(=O)/C=C/c2ccc(OC)cc2)CC1 |
| > 48 µg/mL | N#Cc1ccc(Cl)cc1NC(=O)CSc1cccc[n+]1[O-] |
| > 30.6 µg/mL | CCOC(=O)c1cn2ccc(C)cc2n1 |
| > 54.5 µg/mL | O=C(NC1CCN(Cc2ccccc2)CC1)c1ccc(Cl)cc1Cl |
| > 53.6 µg/mL | CCOC(=O)C(=O)NCC(c1ccco1)S(=O)(=O)c1cccs1 (stereo unspecified) |
| 47.6 µg/mL (≈ 145 µM) | COc1ccc2c(c1)[nH]c1c(=O)n(CCN3CCOCC3)cnc12 |
| > 41.7 µg/mL | Cn1cccc1C(=O)OCC(=O)NCc1cccs1 |
| 35.6 µg/mL (≈ 77.1 µM) | CCCCN(C(=O)CSc1nc2ccccc2s1)c1c(N)n(CCCC)c(=O)[nH]c1=O |
| > 38.7 µg/mL | COc1cccc(OC)c1C(=O)Nc1cccnc1 |
| > 45.5 µg/mL | Cc1ccc(-c2c(C(=O)O)c(C(=O)O)c3n2CSC3)cc1 |
